MC1/MC4 selectivity data for 39 substances are collected here from patent publication US20060293223A1 (Eli Lilly and Company Patent Division, priority 2003, published 2006).

Positions of bridges follow the written chain, without caps; N, C: chain ends. Non-standard residues stand in square brackets, D forms with d. No end group written: not given here. hCys = N[C@@H](CCS)C(=O)O
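Also: ratio of EC50 values obtained at MC1 versus MC4 receptors, with MC1 potency measured by luciferase reporter activity in stably transfected cells expressing human MC1.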

The subject of this assay is MC1/MC4. The conditions noted are these: ratio MC1/MC4.
“Ac-YRCDH[dF]RWC-NH2 (disulfide 3-9) [Compound 7]”: the MC1/MC4 selectivity was 15.00.
The same measure for “Ac-Tyr-Arg-cyclo[Cys-Glu-His-D-Phe-Arg-Trp-Cys]-glycinol [Compound 114]”: 4.00; for “Ac-Tyr-Arg-cyclo[Cys-Glu-His-D-Phe-Arg-Trp-Cys]-NH-(CH2)6-NH2 [Compound 117]”: 1.00.
The same measure for “R[hCys]H[dF]RWC-OH (disulfide 2-7) [Compound 155]”: 55.84; for “Ac-YRCQH[dF]RWC-OH (disulfide 3-9) [Compound 9]”: 10.00.
“Ac-Tyr-Arg-cyclo[Cys-Glu-His-(4-OMe-D-Phe)-Arg-Trp-Cys]-NH2 [Compound 93]”: the MC1/MC4 selectivity is listed as 1.48.
As for “Ac-Tyr-Cit-cyclo[Cys-Glu-(1-Me-His)-D-Phe-Arg-Trp-Cys]-NH2 [Compound 125]”, the figure is 25.08; as for “Ac-Tyr-Arg-cyclo[Cys-Glu-His-D-Phe-Arg-Trp-Cys]-Ser alcohol [Compound 116]”, 4.00; as for “Ac-diaminopropionyl-cyclo[Cys-Glu-His-D-Phe-Arg-Trp-Cys]-NH2 [Compound 43]”, 11.00.
As for “4-guanidinobutyryl-cyclo[Cys-Glu-His-D-Phe-Arg-Trp-Cys]-NH2 [Compound 41]”, the figure is 58.47.
The same measure for “5-guanidinovaleryl-cyclo[Cys-Glu-His-D-Phe-Arg-Trp-Cys]-NH2 [Compound 42]”: 44.63.
Turning to “N-phenylsulfonyl-cyclo[hCys-His-D-Phe-Arg-Trp-Cys]-NH2 [Compound 150]”, the MC1/MC4 selectivity amounted to 12.88.
The same measure for “Ac-Tyr-Arg-cyclo[Cys-Glu-(5-Me-D-His)-D-Phe-Arg-Trp-Cys]-NH2 [Compound 98]”: 7.43.
With “4-phenylbutyryl-cyclo[hCys-His-D-Phe-Arg-Trp-penicillamine]-NH2 [Compound 174]”, the MC1/MC4 selectivity is reported as 4.98.
As for “Tyr-Arg-cyclo[Cys-Glu-His-D-Phe-Arg-Trp-Cys]-OH [Compound 69]”, the figure is 18.38; as for “Ac-nLeu-cyclo[Cys-Glu-His-D-Phe-Arg-Trp-Cys]-NH2 [Compound 60]”, 29.95.
Take “Ac-cyclo[Cys-His-D-Phe-Arg-Trp-hCys]-NH2 [Compound 183]”: the MC1/MC4 selectivity came to 53.39.
Consider “3-guanidinopropionyl-cyclo[Cys-Glu-His-D-Phe-Arg-Trp-Cys]-NH2 [Compound 40]”, for which the MC1/MC4 selectivity is listed as 25.92.
“Ac-Tyr-Arg-cyclo[Cys-Glu-(1-Me-His)-(4-F-D-Phe)-Arg-Trp-Cys]-NH2 [Compound 84]”: the MC1/MC4 selectivity is on record as 150.60.
The same measure for “Ac-Tyr-Arg-cyclo[Cys-Glu-(1-Me-His)-D-Phe-Arg-Trp-Cys]-NH2 [Compound 81]”: 101.69.
“N-cyclobutanecarbonyl-cyclo[hCys-His-D-Phe-Arg-Trp-Cys]-NH2 [Compound 142]”: the MC1/MC4 selectivity is given as 35.55.
Take “Ac-cyclo[Cys-Glu-His-(4-Br-D-Phe)-Arg-Trp-Cys]-NH2 [Compound 33]”: the MC1/MC4 selectivity was 79.54.
As for “Ac-nLeu-cyclo[Cys-Glu-His-D-Phe-Arg-Trp-Cys]-Ser-Pro-NH2 [Compound 61]”, the figure is 1.70.
The same measure for “N-valeryl-cyclo[Cys-Glu-His-D-Phe-Arg-Trp-Cys]-NH2 [Compound 39]”: 19.67.
The same measure for “Ac-hArg-cyclo[Cys-Glu-His-D-Phe-Arg-Trp-Cys]-NH2 [Compound 54]”: 20.85; for “Ac-Tyr-Arg-cyclo[Cys-Glu-(1-Me-His)-(4-Br-D-Phe)-Arg-Trp-Cys]-NH2 [Compound 90]”: 237.22.
With “cyclo[3-thiopropionyl-His-D-Phe-Arg-Trp-hCys]-NH2 [Compound 179]”, the MC1/MC4 selectivity is reported as 5.35.
In the case of “Ac-Tyr-Arg-cyclo[Cys-Glu-His-D-Phe-Arg-Trp-hCys]-NH2 [Compound 192]”, the MC1/MC4 selectivity was determined as 1.00.
Turning to “Ac-Arg-cyclo[Cys-Cya-His-D-Phe-Arg-Trp-Cys]-NH2 [Compound 26]”, the MC1/MC4 selectivity stood at 38.90.
Consider “Ac-CDH[dF]RWC-NH2 (disulfide 1-7) [Compound 6]”, for which the MC1/MC4 selectivity was found to be 35.74.
For the substance “Ac-cyclo(S—CH2—S)[Cys-His-D-Phe-Arg-Trp-Cys]-NH2 [Compound 198]”, the MC1/MC4 selectivity came to 13.07.
As for “Ac-Tyr-Arg-cyclo[Cys-Glu-(1-Me-D-His)-(4-F-D-Phe)-Arg-Trp-Cys]-NH2 [Compound 85]”, the figure is 2.66; as for “Ac-Tyr-Arg-cyclo[Cys-Glu-His-(4-Me-D-Phe)-Arg-Trp-Cys]-NH2 [Compound 92]”, 12.06.
The same measure for “Ac-Tyr-Arg-cyclo[Cys-Glu-His-(4-Cl-D-Phe)-Arg-Trp-Cys]-NH2 [Compound 86]”: 66.21.
Take “Ac-YRCWH[dF]RWC-NH2 (disulfide 3-9) [Compound 23]”: the MC1/MC4 selectivity is reported as 10.54.
The same measure for “Ac-CH[dF]RWC-NH2 (disulfide 1-6) [Compound 1]”: 3.91; for “Ac-cyclo[Cys-Glu-His-(4-Cl-D-Phe)-Arg-Trp-Cys]-NH2 [Compound 32]”: 66.88; for “N-hexanoyl-cyclo[hCys-His-D-Phe-Arg-Trp-Cys]-NH2 [Compound 145]”: 3.82.
With “Ac-Tyr-Arg-cyclo[Cys-Glu-(β-(2-furyl)-Ala)-D-Phe-Arg-Trp-Cys]-NH2 [Compound 110]”, the MC1/MC4 selectivity was determined as 4.27.
